{"source": "patent US8846708B2", "about": "“Salt of a pyrimidin derivative” (Laboratorios Senosiain S.A. de C.V., priority 2010, dated 2014)", "key": {"[1]": {"system": "proteins", "details": "cited from earlier work"}, "[2]": {"test": "physchem", "experimental": "Additionally, a comparative solubility test was performed between rosuvastatin calcium and rosuvastatin lysine."}, "[3]": {"test": "Description / flowability of the salt powder", "assay_type": "physicochemical"}, "[4]": {"details": "in vivo; cited from earlier work"}, "[5]": {"details": "cited from earlier work"}}, "data": [{"smiles": "CC(C)c1nc(N(C)S(C)(=O)=O)nc(-c2ccc(F)cc2)c1/C=C/[C@@H](O)C[C@@H](O)CC(=O)O", "note": "[rosuvastatin calcium, (3R,5S,6E)-7-[4-(4-fluorophenyl)-2-(N-methylmethanesulfonamide)-6-(propan-2-yl)pyrimidin-5-yl]-3,5-dihydroxihept-6-enoic acid]", "values": [{"measurement": "Binding to proteins", "setting": "[1]", "result": 88, "unit": "%"}, {"measurement": "Solubility, HCl 10%", "setting": "[2]", "result": "It sticks to the bottom of the container."}, {"measurement": "Solubility, Methanol", "setting": "[2]", "result": "Taffy"}, {"measurement": "solubility", "setting": "[2]; aqueous buffer", "result": 600, "unit": "µg/mL"}, {"measurement": "solubility", "setting": "[2]; organic solvent or mixture", "result": 10000, "unit": "µg/mL"}, {"measurement": "solubility", "setting": "[2]; water", "result": 5300, "unit": "µg/mL"}, {"measurement": "Description: flowability", "setting": "[3]", "result": "without flowability."}, {"measurement": "Absolute bioavailability", "setting": "[4]", "result": "approximately 20%"}, {"measurement": "Excretion in feces", "setting": "[4]", "result": 90, "unit": "%"}, {"measurement": "Excretion in urine", "setting": "[4]", "result": 10, "unit": "%"}]}, {"smiles": "CC(C)c1nc(N(C)S(C)(=O)=O)nc(-c2ccc(F)cc2)c1/C=C/[C@@H](O)C[C@@H](O)CC(=O)O", "note": "[Rosuvastatin, (3R,5S,6E)-7-[4-(4-fluorophenyl)-2-(N-methylmethanesulfonamide)-6-(propan-2-yl)pyrimidin-5-yl]-3,5-dihydroxihept-6-enoic acid]", "values": [{"measurement": "Solubility in water", "setting": "[5]", "result": "slightly soluble in water"}]}]}
